Test results from ChEMBL document CHEMBL5050839, “Methods and compositions for treatment of cancer” (2021).
pIC50: −log10 of the molar value. Calls of active or inactive are those of the source. No cut-off for these calls is given here.

Legend:
Type in all cases: functional, cell-based
Details in all cases: for Activity: time 24-48 hrs
[1] = system: MIA PaCa-2; test: Antiproliferative activity against human MIA PaCa-2 cells after 24 to 48 hrs by Cell Titer-Glo luminiscent cell viability assay
[2] = system: BXPC-3; test: Antiproliferative activity against human BXPC-3 cells after 24 to 48 hrs by Cell Titer-Glo luminiscent cell viability assay
[3] = system: ASPC1; test: Antiproliferative activity against human ASPC1 cells after 24 to 48 hrs by Cell Titer-Glo luminiscent cell viability assay
[4] = system: PANC-1; test: Antiproliferative activity against human PANC-1 cells after 24 to 48 hrs by Cell Titer-Glo luminiscent cell viability assay

## CN1CCC(=C2c3ccccc3CC(=O)c3sccc32)CC1
[1]
  Activity: Active
[2]
  Activity: Active
[3]
  Activity: Active
[4]
  Activity: Active

## CC1(C)O[C@H]2C[C@H]3[C@@H]4CCC5=CC(=O)C=C[C@]5(C)[C@H]4[C@@H](O)C[C@]3(C)[C@]2(C(=O)CO)O1
[1]
  Activity: Active
[2]
  Activity: Active
[3]
  Activity: Active
[4]
  Activity: Active

## COc1ccc(-c2ccc3cc(C(=O)O)ccc3c2)cc1C12CC3CC(CC(C3)C1)C2
[1]
  Activity: Active
[2]
  Activity: Active
[3]
  Activity: Active
[4]
  Activity: Active

## Cc1nc2n(c(=O)c1CCN1CCC(c3noc4cc(F)ccc34)CC1)CCCC2O (stereo unspecified)
[1]
  Activity: Active
[2]
  Activity: Active
[3]
  Activity: Active
[4]
  Activity: Active

## COc1ccc(CCN2CCC(Nc3nc4ccccc4n3Cc3ccc(F)cc3)CC2)cc1 [ASTEMIZOLE]
[1]
  pIC50: 5.89
[2]
  pIC50: 5.43
[3]
  pIC50: 5.28
[4]
  pIC50: 5.74

## CCC1=C(C)CN(C(=O)NCCc2ccc(S(=O)(=O)NC(=O)N[C@H]3CC[C@H](C)CC3)cc2)C1=O
[1]
  Activity: Active
[2]
  Activity: Active
[3]
  Activity: Active
[4]
  Activity: Active

## O=C(O)c1ccc(NC(=O)[C@H](Cc2ccc(O)cc2)NC(=O)c2ccccc2)cc1
[1]
  Activity: Active
[2]
  Activity: Active
[3]
  Activity: Active
[4]
  Activity: Active

## C[C@]12CC[C@@H]3c4ccc(OS(=O)(=O)O)cc4CC[C@H]3[C@@H]1CCC2=O
[1]
  Activity: Active
[2]
  Activity: Active
[3]
  Activity: Active
[4]
  Activity: Active

## Cc1nc2n(c(=O)c1CCN1CCC(c3noc4cc(F)ccc34)CC1)CCCC2 [RISPERIDONE]
[1]
  pIC50: 5.00
[2]
  pIC50: 5.12
[3]
  pIC50: 4.45
[4]
  pIC50: 4.56
